Entries after “also recorded” stand apart in the source; their conditions may differ. Where no end group is shown, it is not given here.
Key:
[1] = system: NMDAR-mediated currents in VTA dopamine cells; assay: CRF-related peptides on NMDAR-mediated currents at excitatory synapses onto VTA dopamine cells; type: cell-based; settings: mammalian brain
[2] = system: NMDAR eEPSCs; settings: cited from earlier work
[3] = system: 10% ethanol consumption; assay: Voluntary ethanol consumption, limited-access two-bottle choice, icv infusion; type: in vivo, Long Evans rats; settings: 5 μg ICV, n=14
Method: Agents in these in vivo studies were administered to either the lateral ventricle (icv) or ventral tegmental area (VTA) in rats by cannulae, which were implanted as follows. One week after the rats achieved baseline drinking and lever pressing levels in the 2-bottle choice and ethanol self-administration paradigms described below, they were anesthetized with 75 mg/kg pentobarbital sodium and placed in a stereotaxic frame. The head was shaved and scrubbed with an antiseptic solution of betadine/2% H2O2, followed by 2.5% topical xylocalne jelly. The skull was exposed and two to three holes were drilled for implantation of sterile miniature skull screws (⅛″, Small Parts, Inc.). […]
These experiments test the effects of the CRF system on voluntary ethanol consumption using a limited-access paradigm. […] Animal weights were measured daily in order to calculate the gram per kilogram intake. Ethanol preference (%) was calculated as the grams of ethanol consumed divided by the total fluid consumption (grams of ethanol+grams of water). The data was corrected for evaporation and spillage by subtracting the mean fluid loss measured in four drinking tubes placed on empty cages. […]
The effects of CRF (5 μg) and the CRF inhibitor CRF (6-33) (5 μg) on limited access (30 min) 10% ethanol drinking were measured using a limited-access two-bottle choice procedure.

CRF: Corticotrophin-releasing factor, a 41 amino acid peptide; direct CRF receptor agonist (SEEPPISLDLTFHLLREVLEMARAEQLAQQAHSNRKLMEII; ends and bridges not checked; UniProt P06850 154-194, looked up)
potentiation of NMDAR currents [1]: increases | potentiation of NMDARs ([2]; 10 nM CRF, mice): no potentiation | NMDAR eEPSCs, concentration dependent ([2]; mice (FIG. 13)): increased

CRF (6-33): indirect CRF receptor antagonist that acts by displacing CRF from CRF-BP (ISLDLTFHLLREVLEMARAEQLAQQAHS; Corticoliberin; UniProt P06850 159-186, looked up, fragment)
10% ethanol consumption ([3]; limited access, compared to CRF alone): significantly reduced | water consumption [3]: no effect; also recorded: did not reduce
